Measured values published in patent US11554105B2, “Combinations of artemisinins, BCL-2 inhibitors, and kinase inhibitors for cancer treatment” (UNIVERSITY OF MARYLAND, BALTIMORE, priority 2018, dated 2023).
Entries after “also recorded” stand apart in the source; their conditions may differ. Like-named read-outs stand apart in the source and are kept apart here. Marks after values point to notes of the source that are not given here.

Key:
[1] = PO qd×5 at MTD; 15 mg/kg ART631, 50 mg/kg ART838
Protocol: (§1) FIG. 24. Concentration-time profile for 2C-ARTs with PK parameters.
Preliminary pharmacokinetic (PK) studies were designed to compare the PK of ART631 at steady-state at its maximum tolerated dose (MTD) (FIG. 24). […] ART631 plasma concentrations exceeded 50 nM for ˜8 h.

[2] = system: human leukemia cell lines; conditions: more potent than AS; cited from earlier work
[3] = cited from earlier work
[4] = system: MV4:11 or MOLM14 AML xenografts; experiment: Luc-labelled AML xenografts treated with VEN, SOR and ART838 or ART631 (5-cycle MTD regimen); format: in vivo, NRG mice; conditions: two AML xenograft models; single agents and in combination with VEN+SOR
From the text: FIG. 25A-25C. […] FIG. 25A) MTD cyclic drug treatment schema.
Outcome metrics included 1) maximal in vivo antileukemic efficacy 3 days (d) after completion of the 1st treatment cycle (FIG. 25B); 2) survival (FIG. 25C); and 3) toxicity.

in vivo = experiment: in vivo
From the text: as §1
FIG. 25A-25C. […] NOD-Rag1^nullIL2rg^null (NRG) mice were transplanted IV with Luc-labelled MV4; 11 cells on d10. […] FIG. 25A) MTD cyclic drug treatment schema.

human AML cell lines = experiment: In vitro efficacies of artemisinin derivatives against human AML cell lines; format: cell-based
Protocol: Cell lines were seeded in 96-well tissue culture plates at 10^4 cells per well (myeloid leukemia lines) or 2×10^4 cells per well (lymphoid leukemia lines) in culture medium, followed by addition of drugs at the indicated concentrations. 2-4 wells per plate containing media-only were included for background subtraction. Peripheral wells were filled with sterile water to minimize the effects of evaporation.
A novel trioxane dimer allyloxime-631 (ART631) has been designed to further extend in vivo T1/2 without sacrificing antimalarial activity.

[5] = system: mitochondrial superoxide in MOLM14 cells; experiment: Mitochondrial superoxide (MitoSOX Red, flow cytometry); format: cell-based, human; conditions: 16 h, 2.25× approximate 48 h IC50, MitoSox MFI
Protocol: FIGS. 4A-4D. Effects of ART-838- and AS-containing drug combinations on MOLM14 growth and superoxide generation. […] CIs were computed as described above. CI<1 indicates synergy, CI=1, additivity, CI>1, antagonism. […] Cells were then loaded with 5 μM MitoSox for 30 min, washed, and analyzed by flow cytometry for MitoSox fluorescence (indicating mitochondrial superoxide) in the FL2 channel. Mean fluorescence intensity (MFI) was normalized to that of vehicle control (0.5% DMSO) with no pretreatment (100%, lower dotted lines). Upper dotted lines show MFI of ART-838- or AS-treated cells. Error bars represent the SEM of three independent experiments.
Cells were pretreated with NAC, Tiron, DFO, or vehicle then treated with AS, ART-838, or vehicle, as described above, then following a 16-hour drug treatment, cells were loaded with 5 μM MitoSOX Red (Invitrogen, Carlsbad, Calif.) for 30 minutes at 37° C. with 5% CO2, then analyzed using the FL2 channel of an Accuri C6 flow cytometer.
As both ART-838 and AS increased mitochondrial superoxide, and many antineoplastic drugs induce ROS generation, mitochondrial superoxide levels of MOLM14 cells treated with each of the above six antileukemic drugs were evaluated, alone and in combination with ART-838 or AS. All six drugs induced mitochondrial superoxide, although to a much lesser extent than did ART-838 (FIG. 4B) or AS (FIG. 4D).

RCH-ACV = experiment: Kinase inhibitor drug combination screen (MTS, Bliss-independence analysis); conditions: Drug 1 combined with AS (Drug 2) at its approximate IC50, 48 h, average over seven Drug 1 concentrations
Protocol: (§2) Plates (3×384-well per set) contained 7 graded concentrations of each drug at 2× final concentration in culture media in 25 μl/well. […] Cells were plated such that each well contained 2500 cells (MOLM14) or 5000 cells (KOPN8 and RCH-ACV). […] Each plate contained two positive control wells used for background subtraction. Each plate also contained 45 wells without any drug. The background-subtracted absorbance for each well was normalized to the average of the no-drug wells from the corresponding vehicle plate.
(§3) Hits were ranked by the observed inhibition over the Bliss independence prediction.
(§4) Combinations with positive values for this Bliss difference were considered synergistic, values near zero, additive, and negative values, antagonistic.

[6] = system: MOLM14, KOPN8 and RCH-ACV cell lines; experiment: Kinase inhibitor drug combination screen, summary over the three cell lines; conditions: >10% growth inhibition over the Bliss prediction; of three cell lines
Protocol: as §2, §3, §4

KOPN8 = experiment: Kinase inhibitor drug combination screen (MTS, Bliss-independence analysis); format: cell-based, human; conditions: Drug 1 combined with ART-838 (Drug 2) at its approximate IC50, 48 h, average over seven Drug 1 concentrations

fractional inhibition over Bliss prediction (RCH-ACV) | fractional inhibition over Bliss prediction (KOPN8) | SMILES | exposure, oral ART631 compared with ART838 [1] | in vitro potency relative to AS [2] | in vivo T1/2 [3] | tolerability and antileukemic efficacy, ART631 compared with ART838 [4] | previously established MTD, PO×5 d schedule (in vivo; 5 d-on/9 d-off, gavage) | MTD regimen, repeated dose (in vivo; qd×5 PO) | IC50 (human AML cell lines; median over the human AML cell lines tested (11 for AS and ART838, 4 for ART631), read-out: IC50 median) | IC50 (human AML cell lines; range over the human AML cell lines tested (11 for AS and ART838, 4 for ART631), read-out: IC50 range) | mitochondrial superoxide generation, drug alone [5] | No. Cell Lines synergistically inhibited by drug 1 combined with AS and/or ART-838 [6]
 |  | C[C@@H]1CCC2[C@@H](C)[C@@H](CC(COP(=O)(Oc3ccccc3)Oc3ccccc3)C[C@H]3O[C@@H]4O[C@@]5(C)CCC6[C@H](C)CCC([C@H]3C)[C@]64OO5)O[C@@H]3O[C@@]4(C)CCC1[C@@]23OO4 (stereo partly drawn) [ART-838, artemisinin-derived trioxane diphenylphosphate dimer 838] | similar | 88 fold | 3 h | closely similar tolerability and antileukemic efficacy | 50 mg/kg/day | 50 mg/kg | 0.038 µM | 0.01 to 0.547 µM | induced superoxide to greater levels than AS; also recorded: induced mitochondrial superoxide generation | 
RCH-ACV (0.14) | KOPN8 (0.12) | COc1cc(Oc2ccnc3cc(OC)c(OC)cc23)ccc1NC(=O)NC(C)c1nccs1 (stereo not drawn) [KI20227] |  |  |  |  |  |  |  |  |  | 2/3**
